From US10314307B2, “(S)-abscisic acid derivatives for improving plant stress tolerance” (Valent BioSciences Corporation, priority 2015, dated 2019)

Tests used:
Format in all cases: in vivo
[1] = system: Tobacco plants cv. Xanthi-nc; test: Tobacco plants drought assay; conditions: for Percent of plants recovered 3 days after re-watering: re-watered after 18 days of water withdrawal
Protocol: Tobacco plants cv. Xanthi-nc were grown for six weeks at 25° C. and were size matched into groups of four. Each plant group was drench-treated with 10 mL of water containing 0.5% DMSO (control), 0.3 mg, 1.0 mg or 3.0 mg/plant 3′-methyl-(S)-abscisic acid, or 0.3 mg, 1.0 mg or 3.0 mg/plant S-ABA, respectively. The plants were kept in the greenhouse and not watered, simulating drought conditions. After 18 days of water withdrawal, the plants in all treatment groups wilted. At that point, all the plants were watered again. The number of plants that wilted during each day of water withdrawal and the number of plants that recovered following the re-watering were recorded.

[2] = system: corn seed of a common inbred parental line; test: Corn plant emergence after seed treatment; conditions: for Additional delay in emergence in comparison with S-ABA: 80 μg/seed rate; for Relative potency of S-ABA, dose required to delay the median emergence time by two days: regression; for Delay in Median Emergence Time Compared to Control / Median Time to Emergence: 20.5° C.
Protocol: Corn seed of a common inbred parental line were treated using standard seed treatment equipment with water (control), 40 μg, 80 μg or 160 μg/seed S-ABA, 10 μg, 20 μg, 40 μg or 80 μg/seed 3′-methyl-(S)-abscisic acid, or 10 μg, 20 μg, 40 μg or 80 μg/seed 3′-propargyl-(S)-abscisic acid. Post treatment, the seeds were planted in 12×3×2″ plastic boxes containing one kilogram of sieved, pre-moistened field soil. Fifty seeds were planted in each box at three centimeter depth and two replicate boxes per treatment at 20.5° C. under constant illumination. Two replications of the experiment were incubated under constant light in a 20.5° C. growth chamber. Emergence counts were recorded almost daily until seedling emergence had ceased (42 days). Daily counts were converted to proportions of the final emergence to estimate the median emergence time for each box.

[3] = system: Cucumber plants cv. ‘Straight Eight’; test: Cucumber seedling chilling; design: key to New Growth Rating: 0 = No new growth; 1 = some new growth; 2 = new leaves; conditions: for New Growth Rating / Percent Leaf Area Affected: foliar spray 100 mg/liter, 300 ug/plant, 96 hours at 4° C., rated after 48 hours recovery
Protocol: In these studies, 3′-methyl-(S)-abscisic acid was compared with (S)-abscisic acid on cucumber seedlings for prevention of chilling damage. Cucumber plants cv. ‘Straight Eight’ were grown for two weeks at 25° C. and were size matched into groups of three plants. Each group was sprayed with water+0.05% non-ionic surfactant (control), 100 ppm 3′-methyl-(S)-abscisic acid and surfactant, or 100 ppm S-ABA and surfactant until wet, respectively. For the spray solutions, 3′-methyl-(S)-abscisic acid was dissolved in 0.5% by volume DMSO in water. Following the foliar treatment, plants were held for 48 hours at room temperature, then subjected to 4° C. for 96 hours, and then returned to 25° C. After the plants had been allowed to recover from the chilling treatments for 48 hours, the plants were rated for percent leaf area affected and new growth.

crop plants = test: Mitigation of drought and chilling stress on crop plants (summary statement)

Structure (SMILES)	Percent of non-wilted plans on days after drench treatment and drought initiation, Day 8 ([1]; 0.3 mg/plant drench)	Percent of non-wilted plans on days after drench treatment and drought initiation, Day 10 ([1]; 0.3 mg/plant drench)	Percent of non-wilted plans on days after drench treatment and drought initiation, Day 12 ([1]; 0.3 mg/plant drench)	Percent of non-wilted plans on days after drench treatment and drought initiation, Day 14 ([1]; 0.3 mg/plant drench)	Percent of non-wilted plans on days after drench treatment and drought initiation, Day 16 ([1]; 0.3 mg/plant drench)	Percent of non-wilted plans on days after drench treatment and drought initiation, Day 18 ([1]; 0.3 mg/plant drench)	Percent of plants recovered 3 days after re-watering ([1]; 0.3 mg/plant drench)	Percent of non-wilted plans on days after drench treatment and drought initiation, Day 8 ([1]; 1 mg/plant drench)	Percent of non-wilted plans on days after drench treatment and drought initiation, Day 10 ([1]; 1 mg/plant drench)	Percent of non-wilted plans on days after drench treatment and drought initiation, Day 12 ([1]; 1 mg/plant drench)	Percent of non-wilted plans on days after drench treatment and drought initiation, Day 14 ([1]; 1 mg/plant drench)	Percent of non-wilted plans on days after drench treatment and drought initiation, Day 16 ([1]; 1 mg/plant drench)	Percent of non-wilted plans on days after drench treatment and drought initiation, Day 18 ([1]; 1 mg/plant drench)	Percent of plants recovered 3 days after re-watering ([1]; 1 mg/plant drench)	Percent of non-wilted plans on days after drench treatment and drought initiation, Day 8 ([1]; 3 mg/plant drench)	Percent of non-wilted plans on days after drench treatment and drought initiation, Day 10 ([1]; 3 mg/plant drench)	Delay in Median Emergence Time Compared to Control ([2]; seed treatment 40 μg/seed)	Median Time to Emergence ([2]; seed treatment 40 μg/seed)	Delay in Median Emergence Time Compared to Control ([2]; seed treatment 80 μg/seed)	Median Time to Emergence ([2]; seed treatment 80 μg/seed)	further results
CC1=C(C)[C@](O)(/C=C/C(C)=C\C(=O)O)C(C)(C)CC1=O [3′-methyl-(S)-ABA, (2Z,4E)-5-((S)-1-hydroxy-2,3,6,6-tetramethyl-4-oxocyclohex-2-en-1-yl)-3-methylpenta-2,4-dienoic acid]	100%	100%	83%	33%	0%	0%	0%	100%	100%	100%	83%	67%	0%	33%	100%	100%	11.1 days	16.0 days	13.8 days	18.6 days	Percent of non-wilted plans on days after drench treatment and drought initiation, Day 12 ([1]; 3 mg/plant drench): 100%; Percent of non-wilted plans on days after drench treatment and drought initiation, Day 14 ([1]; 3 mg/plant drench): 100%; Percent of non-wilted plans on days after drench treatment and drought initiation, Day 16 ([1]; 3 mg/plant drench): 83%; Percent of non-wilted plans on days after drench treatment and drought initiation, Day 18 ([1]; 3 mg/plant drench): 0%; Percent of plants recovered 3 days after re-watering ([1]; 3 mg/plant drench): 83%; Percent of plants recovered 3 days after re-watering ([1]; 3 mg/plant drench, listed as 3′-methyl-(S)-abscisic acid): 83%; Drought tolerance compared to the untreated control or the highest amount (3.0 mg) of S-ABA ([1]; lowest amount (0.3 mg)): superior drought tolerance; Additional delay in emergence in comparison with S-ABA [2]: 5.6 calendar days; Relative potency of S-ABA, dose required to delay the median emergence time by two days [2]: 2.2 times; Delay in Median Emergence Time Compared to Control ([2]; seed treatment 10 μg/seed): 4.9 days; Median Time to Emergence ([2]; seed treatment 10 μg/seed): 9.7 days; Delay in Median Emergence Time Compared to Control ([2]; seed treatment 20 μg/seed): 7.9 days; Median Time to Emergence ([2]; seed treatment 20 μg/seed): 12.7 days; Mitigating chilling damage compared with S-ABA ([3]; 100 ppm foliar spray, chilling at 4° C.): more effective than S-ABA; New Growth Rating [3]: 2; Percent Leaf Area Affected [3]: 16.67%; Effectiveness relative to S-ABA when applied to crop plants to mitigate drought and chilling stress (crop plants): from about two to about ten times as effective as S-ABA
C#CCC1=C(C)[C@](O)(/C=C/C(C)=C\C(=O)O)C(C)(C)CC1=O [3′-propargyl-(S)-ABA, (2Z,4E)-5-((S)-1-hydroxy-2,6,6-trimethyl-4-oxo-3-(prop-2-yn-1-yl)cyclohex-2-en-1-yl)-3-methylpenta-2,4-dienoic acid]	–	–	–	–	–	–	–	–	–	–	–	–	–	–	–	–	16.2 days	21.0 days	22.4 days	27.3 days	Additional delay in emergence in comparison with S-ABA [2]: 14.3 calendar days; Relative potency of S-ABA, dose required to delay the median emergence time by two days [2]: 2.6 times; Delay in Median Emergence Time Compared to Control ([2]; seed treatment 10 μg/seed): 8.6 days; Median Time to Emergence ([2]; seed treatment 10 μg/seed): 13.4 days; Delay in Median Emergence Time Compared to Control ([2]; seed treatment 20 μg/seed): 11.3 days; Median Time to Emergence ([2]; seed treatment 20 μg/seed): 16.2 days
CC1=CC(=O)CC(C)(C)[C@@]1(O)/C=C/C(C)=C/C(=O)O [S-ABA, (S)-abscisic acid]	100%	100%	17%	0%	0%	0%	0%	100%	100%	50%	0%	0%	0%	0%	100%	100%	5.6 days	10.5 days	8.2 days	13.0 days	Percent of non-wilted plans on days after drench treatment and drought initiation, Day 12 ([1]; 3 mg/plant drench): 67%; Percent of non-wilted plans on days after drench treatment and drought initiation, Day 14 ([1]; 3 mg/plant drench): 0%; Percent of non-wilted plans on days after drench treatment and drought initiation, Day 16 ([1]; 3 mg/plant drench): 0%; Percent of non-wilted plans on days after drench treatment and drought initiation, Day 18 ([1]; 3 mg/plant drench): 0%; Percent of plants recovered 3 days after re-watering ([1]; 3 mg/plant drench): 0%; Plants recovered once they were watered ([1]; all S-ABA doses (0.3, 1.0, 3.0 mg/plant)): none; Delay in Median Emergence Time Compared to Control ([2]; seed treatment 160 μg/seed): 9.7 days; Median Time to Emergence ([2]; seed treatment 160 μg/seed): 14.6 days; New Growth Rating [3]: 1; Percent Leaf Area Affected [3]: 33.33%
